Results on three sequences are retold here after patent US20240238365A1, “AMYLOID-Beta AGGREGATION INHIBITOR, PHARMACEUTICAL COMPOSITION FOR AMYLOID-Beta AGGREGATION DISEASES, AND USE APPLICATION OF SAME” (O-FORCE CO., LTD., priority 2021, published 2024).

Broadly, the IC50 is the concentration needed to halve the response being measured. A higher IC50 goes with weaker potency.

Test [1] addresses T1, Aß25-35 (Homo sapiens, UniProt P05067). The test is described as follows: Inhibition of Aß25-35 aggregation, thioflavin T (ThT) fluorescence. The note with it: 0.1 mM peptide YS, 0.1 mM Aß25-35, 37° C., incubation 4 hours, n=3. Format: biochemical. On the procedure: The peptides YS-11, YS-15, and YS-16 were used as the peptides YS of the examples. Each of the peptides was dissolved in MilliQ water to prepare three types of 1-mg/mL YS solutions.
An Aß-derived fragment peptide was used for aggregation of Aß. Aß25-35, which has high aggregability, was selected as the fragment peptide. The Aß25-35 is a peptide (SEQ ID NO: 7: GSNKGAIIGLM) constituted by 11 amino acid residues consisting of the twenty-fifth to thirty-fifth amino acid residues in the full length sequence of human-derived Aß (SEQ ID NO: 6). The Aß25-35 was dissolved in MilliQ water to prepare a 1-mmol/L Aß25-35 solution.
The fluorescent dye thioflavin T (ThT) binds to aggregates and emits strong fluorescence upon binding, and thus the increase or inhibition of aggregation can be determined by measuring the fluorescence intensity. Thus, the inhibition of aggregation of the Aß25-35 by each peptide YS was checked using ThT.
Specifically, a reaction solution with the following composition was prepared and dispensed into wells such that the amount of the reaction solution per well was 200 μL. After the reaction solution was incubated at 37° C. for a predetermined period of time (0 or 4 hours), 10 μL of 2-mmol/L ThT (reagent name “Thioflavine T”, manufactured by FUJIFILM Wako Pure Chemical Corporation) was added to each well, and the fluorescence intensity was measured using a measurement device (product name “Cytation5”, manufactured by BioTek) (n=3). The measurement wavelengths were set such that the excitation wavelength (ex) was 444 nm and the fluorescence wavelength (em) was 480 nm. As a control, a reaction solution to which water had been added instead of the peptide YS was also measured in the same way.

Test [2] deals with T1, Aß25-35. The test is described as follows: IC50 of YS peptide against Aß25-35 aggregation (ThT fluorescence). Type of test: biochemical. The note with it: 37° C., ThT added 2 hours after start of incubation, blank corrected, n=3. On the procedure: Reaction solutions with different compositions, namely those with the following compositions (A, B, C, and D), were prepared and dispensed into wells such that the amount of the reaction solution per well was 200 μL. The concentration (X mmol/L) of the peptide YS (YS-11 or YS-16) in the YS solution to be added to the reaction solutions was set to 0.01, 0.05, 0.1, 0.5, and 1 mmol/L. The reaction solutions were incubated at 37° C., and 10 μL of 2-mmol/L ThT (reagent name “Thioflavine T”, manufactured by FUJIFILM Wako Pure Chemical Corporation) was added to each well 2 hours after the start of the incubation. Then, the fluorescence intensity was measured using the measurement device (n=3). The measurement wavelengths were set such that the excitation wavelength (ex) was 444 nm and the fluorescence wavelength (em) was 480 nm. [table] […] In FIG. 2, the vertical axes indicate the fluorescence intensity (unit: FI), and the horizontal axes indicate the concentration of the peptide YS (unit: μmol/L).

The target of test [3] is T1, Aß25-35. The experiment in a line: Aggregation inhibition checked by scanning electron microscope. As to conditions: 0.1 mM peptide, 0.1 mM Aß25-35, 37° C., 4 hours, versus no peptide YS. Format: biochemical. On the procedure:
A reaction solution with the following composition was prepared in a 1.5-mL tube (manufactured by Eppendorf). After incubating at 37° C. for 4 hours, the reaction solution was centrifuged (12,000 rpm, 10 minutes), and a precipitate was collected. The collected precipitate was washed as follows: 200 μL of MilliQ water was added to the precipitate and the resultant mixture was centrifuged again (12,000 rpm, 10 minutes). This washing treatment was performed three times. Then, 100 μL of a 1% phosphotungstic acid solution was added to the collected precipitate. After the resultant mixture was left to stand for 5 minutes at room temperature, the precipitate was collected through centrifugation (12,000 rpm, 10 minutes), was washed by adding 200 μL of MilliQ water thereto, and was collected through centrifugation (12,000 rpm, 10 minutes). 100 μL of MilliQ water was added to the precipitate, and a suspension was formed using a Vortex mixer. The suspension was added to a glass slide and dried, followed by observation under a scanning electron microscope. [table]

Test [4] deals with T2, Aß25-35 aggregates (Homo sapiens, UniProt P05067). The test is described as follows: Peptide YS concentration versus ability to dissociate Aß25-35 aggregates (ThT fluorescence). Type of test: biochemical. As to conditions: 37° C.; for ability to dissociate Aß25-35 aggregates: 5 days after aggregate formation. On the procedure:
First, a reaction solution with the following composition was prepared, was dispensed into wells such that the amount of the reaction solution per well was 200 μL, and was incubated at 37° C. for 18 hours to form aggregates of the Aß25-35 in the reaction solution. 100 μL of an X-mmol/L peptide YS solution (YS-11 or YS-16) was further added to the reaction solution, and the resultant mixture was incubated at 37° C. for 5 days. The concentration (X mmol/L) of the peptide YS in the peptide YS solutions was set to […]. After the incubation, 10 μL of 2-mmol/L ThT was added to each well, and the fluorescence intensity was measured using the measurement device (n=3). The measurement wavelengths were set such that the excitation wavelength (ex) was 444 nm and the fluorescence wavelength (em) was 480 nm. As a control, a reaction solution (Aß25-35) to which water had been added instead of the peptide YS was also measured in the same way. [table]

Test [5] concerns ICR mice to which Aß25-35 had been administered. The experiment in a line: Y-maze short-term memory test in mice given Aß25-35. Format: in vivo. On the procedure:
The aggregation inhibiting peptide was further administered to mice to which the Aß25-35 had been administered, and then the effects of the aggregation inhibiting peptide was checked.
The Aß25-35 was dissolved in a saline solution to prepare a 3-mmol/L Aß25-35 solution. The Aß25-35 and the YS-11 were dissolved in a saline solution to prepare a mixed solution containing the Aß25-35 at a concentration of 3 mmol/L and the YS-11 at a concentration of 3 mmol/L. The YS-11 was dissolved in a saline solution to prepare a 10-mg/mL YS-11 solution. A saline solution (Saline) was used as a control.
ICR mice (6-week old) were prepared and divided into an Aß25-35 administration group (n=15), a control (Saline) administration group (n=15), a mixed solution administration group (n=6), and a peptide YS administration group (n=7).
The administration schedule was as follows: ventricular administration was performed on Day 1, and nasal administration was performed on Day 14, Day 17, Day 20, and Day 23. A microsyringe was used for the ventricular administration, and a Pipetman was used for the nasal administration. Specifically, the administration was performed on each administration group as follows. […]
Then, on Day 14 and Day 28, the short-term memory was evaluated using a Y-maze. […]

In test [6] the target is T2, Aß25-35 aggregates. The experiment in a line: Dissociation of Aß25-35 aggregates checked by scanning electron microscope. Format: biochemical. As to conditions: pre-formed aggregates; 100 μL of 0.05-mmol/L YS-11 or 1-mmol/L YS-16 solution added, 37° C., 5 days; versus no peptide. On the procedure:
A reaction solution with the following composition was prepared in a 1.5-mL tube (manufactured by Eppendorf) and incubated at 37° C. for 18 hours to form aggregates of the Aß25-35. Then, 100 μL of a peptide YS solution at a predetermined concentration was added to the reaction solution, and the resultant mixture was further incubated at 37° C. for 5 days. A 0.05-mmol/L YS-11 solution, a 1-mmol/L YS-16 solution, and a 1-mmol/L YS-6 solution were used as the peptide YS solution, and MilliQ water was used instead of the peptide YS solution as a control. After the incubation, centrifugation (12,000 rpm, 10 minutes) was performed to collect a precipitate. The precipitate was treated in the same manner as in Example 1(3) above, and was then observed under a scanning electron microscope. [table]

The target in test [7] is T2, Aß25-35 aggregates. The test is described as follows: Ability to dissociate pre-formed Aß25-35 aggregates (ThT fluorescence). The note with it: aggregates formed 18 hours at 37° C., then 100 μL of 1-mmol/L peptide added, 5 days. Format: biochemical. On the procedure: First, a reaction solution with the following composition was prepared and incubated at 37° C. for 18 hours to form aggregates of the Aß25-35 in the reaction solution. 100 μL of a 1-mmol/L peptide YS (YS-5 or YS-16) was further added to the reaction solution, and the resultant mixture was incubated at 37° C. for 5 days. After the incubation, the reaction solution was dispensed into wells such that the amount of the reaction solution per well was 200 μL. Furthermore, 10 μL of 2-mmol/L ThT was added to each well, and the fluorescence intensity was measured using the measurement device (n=3). The measurement wavelengths were set such that the excitation wavelength (ex) was 444 nm and the fluorescence wavelength (em) was 480 nm. As a control, a reaction solution to which water had been added instead of the peptide YS was also measured in the same way. [table]

“Also recorded” adds a separate entry of the source. Where no end group is shown, it is not given here.

Regarding “YKNMRETLVYLTHLD (aggregation inhibitor peptide) [YS-15]”, the “fluorescence intensity compared with the control (Aß25-35 without peptide YS)” value in test [1] is listed as “significantly lower”.

Turning to RETLVYLTHLD [YS-11, RETLVYLTHLD], it took 3600 nM to reach half-maximal inhibition in test [2] (IC50). Further, in test [3], the “fibrous material / formation of aggregates under scanning electron microscope” value is recorded as “decreased very significantly”. In addition, the “ability to dissociate Aß25-35 aggregates” value in test [4] (final concentration range of 0.005 to 0.1 mmol/L) is given as “excellent dissociating ability”. Further, in test [1], the “fluorescence intensity compared with the control (Aß25-35 without peptide YS)” value is recorded as “significantly lower; also recorded: considerably lower”. For the same sequence, the “alternation rate in Y-maze” value in test [5] (Day 14, ventricular coadministration on Day 1 of 9 nmol Aß25-35 and 9 nmol YS-11 (mixed solution), n=6) is listed as “as high as that of the control group”; in test [5] (Day 28, Aß25-35 ventricular on Day 1, then YS-11 nasal 74 nmol on Day 14, 17, 20, 23, n=7), “as high as that of the control group”. For the same sequence, in test [6], the “amount of fibrous aggregates under scanning electron microscope” value is given as “a further decrease in the amount of fibrous aggregates”.

With “RETLVYLTHLDYDDTE [YS-16, RETLVYLTHLDYDDTE]”, in test [2], the IC50 came out at 600 nM. In addition, the “fibrous material / formation of aggregates under scanning electron microscope” value in test [3] is reported as “substantially no fibrous material was observed”. Besides, in test [4] (final concentration of 0.1 mmol/L, 5 days), the “aggregates dissociated (control Aß25-35 aggregates taken as 100%)” value came out at 48%. Further, in test [4] (final concentration range of 0.01 to 0.1 mmol/L), the “ability to dissociate Aß25-35 aggregates” value is given as “excellent dissociating ability in a concentration-dependent manner”. For the same sequence, the “fluorescence intensity compared with the control (Aß25-35 without peptide YS)” value in test [1] is recorded as “significantly lower; also recorded: considerably lower”. Also, in test [6], the “amount of fibrous aggregates under scanning electron microscope” value is “a decrease in the amount of fibrous aggregates”. Also, in test [7], the control aggregates dissociated is 50% and the “fluorescence intensity relative to the control (Aß25-35)” value was determined as 50%.
